Structures can show the parent of a compound that is named as a salt.
Test: in vitro
Conditions: PAMPA, PAMPA-BBB Pe

Molecule `CC[C@H](C)C(=O)O[C@H]1CCC=C2C=C[C@H](C)[C@H](CC[C@@H]3C[C@@H](O)CC(=O)O3)[C@H]21` [MEVASTATIN] has a Papp of 14 ×10⁻⁶ cm/s.

Same assay, conditions: PAMPA, PAMPA-BBB Pe(10^-6 cm/sec), Table S3: compounds exhibiting low PAMPA-BBB permeability

Point of comparison: `Oc1cc(O)cc(/C=C/c2ccc(O)c(O)c2)c1` [[…]], Papp 1 ×10⁻⁶ cm/s. Against it:
- Oc1ccc(/C=C/c2cc(O)cc(O)c2)cc1 [RESVERATROL] — 1.8-fold higher, 1.8 ×10⁻⁶ cm/s
- N[C@H](C(=O)O)c1cc(O)cc(O)c1 [DIHYDROXYPHENYLGLYCINE] — lower, < 1 ×10⁻⁶ cm/s
- CCCCc1ccc(C(=O)O)nc1 [FUSARIC ACID] — lower, < 1 ×10⁻⁶ cm/s
- COc1cc(C(=O)O)ccc1O [VANILLIC ACID] — lower, < 1 ×10⁻⁶ cm/s
- C[C@H]1O[C@H](O[C@H]2[C@H](O)[C@@H](O)[C@@H](O)[C@H](O)[C@@H]2O)[C@@H](N)C[C@@H]1NC(=N)C(=O)O [KASUGAMYCIN HYDROCHLORIDE] — lower, < 1 ×10⁻⁶ cm/s
- Nc1ncnc2c1ncn2[C@@H]1O[C@H](CO)C[C@H]1O [CORDYCEPIN] — lower, < 1 ×10⁻⁶ cm/s
- O=C(O)/C=C/c1c[nH]cn1 [UROCANIC ACID] — lower, < 1 ×10⁻⁶ cm/s
- CC1CC(C)C(=O)C1=O (stereo not drawn) — 2.7-fold higher, 2.7 ×10⁻⁶ cm/s
- NCCc1c[nH]c2ccc(O)cc12 [SEROTONIN HYDROCHLORIDE] — lower, < 1 ×10⁻⁶ cm/s
- COc1cc(OC)c(C(C)=O)c(O)c1C [METHYLXANTHOXYLINE] — lower, < 1 ×10⁻⁶ cm/s
- C[C@@H]1O[C@@H](O[C@@H]2C=C3CC[C@@H]4[C@H](CC[C@]5(C)[C@@H](c6ccc(=O)oc6)CC[C@]45O)[C@@]3(C)CC2)[C@H](O)[C@H](O)[C@H]1O [PROSCILLARIDIN] — 1.5-fold higher, 1.5 ×10⁻⁶ cm/s
- CO[C@@H]1[C@@H](O[C@@H]2O[C@H](C)[C@@H](O[C@H]3C[C@@](C)(O)[C@@H](O)[C@H](C)O3)[C@H](N(C)C)[C@H]2O)[C@@H](CC=O)C[C@@H](C)[C@@H](O[C@H]2CC[C@H](N(C)C)[C@@H](C)O2)/C=C/C=C/C[C@@H](C)OC(=O)C[C@H]1OC(C)=O [SPIRAMYCIN II] — 7.6-fold higher, 7.6 ×10⁻⁶ cm/s
- Cc1cc(O)cc(O)c1C(=O)O [[…]] — lower, < 1 ×10⁻⁶ cm/s
- CCCCC/C=C\C=C\C(=O)OCC [ETHYL TRANS-2,CIS-4-DECADIENOATE] — lower, < 1 ×10⁻⁶ cm/s
- O=[N+]([O-])c1ncc[nH]1 [AZOMYCIN] — lower, < 1 ×10⁻⁶ cm/s
- CC1NC(C(=O)O)Cc2c1[nH]c1ccccc21 (stereo not drawn) — lower, < 1 ×10⁻⁶ cm/s
- C[C@H](O)C(=O)C1=Nc2c(nc(N)[nH]c2=O)NC1 [SEPIAPTERIN] — 1.6-fold higher, 1.6 ×10⁻⁶ cm/s
- Cc1ncsc1CCO [HEMINEURINE] — lower, < 1 ×10⁻⁶ cm/s
- CC1=C(CC/C(C)=C/CCC2=CC[C@H](C3=CC(=O)O[C@H]3O)O[C@H]2O)C(C)(C)CCC1 [MANOALIDE] — lower, < 1 ×10⁻⁶ cm/s
- CNCC/C=C/c1cccnc1 [RIVANICLINE] — 7.1-fold higher, 7.1 ×10⁻⁶ cm/s
- Clc1ccc([C@@H]2C[C@H]3CC[C@@H]2N3)cn1 [Epibatidine dihydrochloride] — 5.9-fold higher, 5.9 ×10⁻⁶ cm/s
- C[C@@]12C=Cc3occc3[C@H]1CC[C@@]13C[C@@H](CC[C@H]12)[C@@](O)(CO)C3 [KAHWEOL] — lower, < 1 ×10⁻⁶ cm/s

Same assay, conditions: PAMPA, PAMPA-BBB Pe, Table S2: compounds exhibiting moderate to high PAMPA-BBB permeability

Point of comparison: `COc1ccc(-c2cnc(-c3cccnc3)o2)cc1` [O-[…]], Papp 262 ×10⁻⁶ cm/s. Against it:
- COc1cc(O)c(C(C)=O)c(OC)c1 [XANTHOXYLINE] — 1.8-fold lower, 149 ×10⁻⁶ cm/s
- CC1(C)O[C@@H]1COc1c2occc2cc2ccc(=O)oc12 [HERACLENIN] — within 1.5-fold, 210 ×10⁻⁶ cm/s
- COc1cc(C)c(C(=O)Oc2cc(C)c(C(=O)O)c(O)c2C)c(OC)c1C [Diffractaic acid] — 17-fold lower, 15 ×10⁻⁶ cm/s
- CC(C)(O)[C@H]1O[C@H]2CC[C@@]3(C)[C@@](O)(CC[C@H]4Cc5c([nH]c6ccccc56)[C@@]43C)C2=CC1=O [PAXILLINE] — 1.6-fold lower, 161 ×10⁻⁶ cm/s
- COC(=O)/C=C\C(=O)O [[…]] — 5.5-fold lower, 48 ×10⁻⁶ cm/s
- COc1cc(OC)c(OC)cc1C=O [GAZARIN] — 4.1-fold lower, 64 ×10⁻⁶ cm/s
- CC[C@@]1(O)C[C@H](O[C@H]2C[C@H](N(C)C)[C@H](O)[C@H](C)O2)c2c(cc3c(c2O)C(=O)c2c(O)cccc2C3=O)[C@H]1C(=O)OC [AKLAVINE] — 2.3-fold lower, 116 ×10⁻⁶ cm/s
- C/C=C/c1ccc(OC)cc1 [ANETHOLE] — 2.2-fold lower, 120 ×10⁻⁶ cm/s
- S=c1ccss1 [1,2-DITHIOLE-3-THIONE] — 2.7-fold lower, 98 ×10⁻⁶ cm/s
- CC1=C2[C@H]3OC(=O)[C@@H](C)[C@@H]3CC[C@@]2(C)C=CC1=O [SANTONINUM] — 5.3-fold lower, 49 ×10⁻⁶ cm/s
- COc1cc(-c2oc3cc(O)cc(O)c3c(=O)c2O)ccc1O [ISORHAMNETIN] — 2-fold higher, 528 ×10⁻⁶ cm/s

— publication PMC11876671, “Investigating blood–brain barrier penetration and neurotoxicity of natural products for central nervous system drug development” (Scientific Reports, 2025)
